Test results taken from patent EP1525798B1, “Carbohydrate oxidase and use thereof in baking” (Novozymes A/S, priority 1997, dated 1999).

The molecules below were run on T1, carbohydrate oxidase from M. nivale (Microdochium nivale CBS 100236, SEQ ID NO: 2), wild type (assay: Steady state kinetics (apparent Km) by the 4AA-TOPS assay). Conditions: apparent value from Lineweaver-Burke plot, simple Michaelis-Menten kinetics assumed, carbohydrate substrate concentration varied, phosphate/citrate pH 6.
T1 construct: made in house
Type: biochemical
Description: Assays are carried out in 96 well microtiter plates. 100 µl 0.1 M phosphate/citrate, pH 6 is mixed with 50 µl 0.24 M glucose and 50 µl pre-mix (3 mM 4-aminoantipyrine (4AA), 7 mM N-ethyl-N-sulfopropyl-m-toluidine (TOPS), 40 PODU/ml rCiP) and the reaction is started by adding 40 µl of oxidase solution diluted appropriately. Absorption is measured at 490 nm as a function time using the Vmax microtiter plate ready from Molecular Devices and the activity is taken as the slope of the linear increase in absorption.
Steady state kinetics was conducted by varying the concentration of the carbohydrate substrates and determining the carbohydrate oxidase activity by the 4AA-TOPS assay. Simple Michaelis-Menten kinetics was assumed although the reaction is not a simple one substrate-one product mechanism (E+S↔ES↔E+P).
The steady state kinetics for the carbohydrate oxidase from M. nivale were investigated using some of the preferred substrates. Kinetic constants were obtained from a Lineweaver-Burke plot, assuming simple Michaelis-Menten kinetics (although this is a rather poor assumption) to obtain apparent values "Km" and "Vmax" for various substrates.

Row | Structure (SMILES) | Km [mM]
1 | OC[C@H]1O[C@H](O[C@H]2[C@H](O)[C@@H](O)C(O)O[C@@H]2CO)[C@H](O)[C@@H](O)[C@@H]1O (mixture of isomers) [Maltose] | 11
2 | O=C[C@H](O)[C@@H](O)[C@H](O[C@@H]1O[C@H](CO)[C@@H](O)[C@H](O)[C@H]1O)[C@H](O)CO [Cellobiose] | 59
3 | OC[C@H]1OC(O)[C@H](O)[C@@H](O)[C@@H]1O (stereo partly drawn) [Glucose] | 42
